Experimental data from ChEMBL document CHEMBL1201862, “PubChem BioAssay data set” (2004).
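Step 1: Grow cells in 96-well plates. Step 2: Expose to compound for 48 hours at 5 concentrations. Step 3: Interpolate endpoints linearly; if unreached, use highest concentration. GI50 = concentration required for 50% inhibition of growth.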 Activity calls are given as the source filed them. Cut-off read from the data, not from the text of the source: active = GI50 up to about 1.1 µM and inactive = higher.

What was measured:
Experiment in all cases: NCI anticancer screen, dose series, 48 h
EKVX = test system: EKVX
NCI-H23 = test system: NCI-H23
NCI-H226 = test system: NCI-H226
OVCAR-5 = test system: OVCAR-5
MOLT-4 = test system: MOLT-4
U-251 = test system: U-251
Malme-3M = test system: Malme-3M
SK-MEL-28 = test system: SK-MEL-28
OVCAR-3 = test system: OVCAR-3
HT-29 = test system: HT-29
M14 = test system: M14
COLO 205 = test system: COLO 205
SF-295 = test system: SF-295
SN12C = test system: SN12C
ACHN = test system: ACHN
RPMI-8226 = test system: RPMI-8226
SF-539 = test system: SF-539
LOX IMVI = test system: LOX IMVI
UO-31 = test system: UO-31
UACC-257 = test system: UACC-257

Measured: GI50

COC(=O)C1CCC(=O)N1C(c1ccc2c(c1)OCO2)c1cc(OC)c(OC)c(OC)c1 (stereo not drawn)
inactive: EKVX > 100 µM | NCI-H23 > 100 µM | NCI-H226 > 100 µM | OVCAR-5 > 100 µM | MOLT-4 > 100 µM | U-251 > 100 µM | Malme-3M > 100 µM | SK-MEL-28 > 100 µM | OVCAR-3 > 100 µM | HT-29 > 100 µM | M14 > 100 µM | COLO 205 > 100 µM | SF-295 > 100 µM | SN12C > 100 µM | ACHN > 100 µM | RPMI-8226 > 100 µM | SF-539 > 100 µM | LOX IMVI > 100 µM | UO-31 > 100 µM | UACC-257 > 100 µM

O=C1/C(=C/c2ccccc2)CCC/C1=C\c1ccccc1 [2,6-DIBENZYLIDENECYCLOHEXANONE]
inactive: EKVX 18.3 µM | NCI-H23 12.8 µM | NCI-H226 18.7 µM | OVCAR-5 17.3 µM | MOLT-4 3.95 µM | U-251 5.82 µM | Malme-3M 16.5 µM | SK-MEL-28 16.6 µM | OVCAR-3 10.4 µM | HT-29 5.87 µM | M14 6.44 µM | COLO 205 17.9 µM | SF-295 10.4 µM | SN12C 16.1 µM | ACHN 15.7 µM | RPMI-8226 1.6 µM | SF-539 16.6 µM | LOX IMVI 2.21 µM | UO-31 18.2 µM | UACC-257 17 µM

C[C@]12CC[C@H](O[C@@H]3O[C@H](CO[C@@H]4O[C@H](CO)[C@@H](O)[C@H](O)[C@H]4O)[C@@H](O)[C@H](O)[C@H]3O)C[C@@H]1CC[C@@H]1[C@@H]2CC[C@]2(C)[C@@H](C3=CC(=O)OC3)CC[C@]12O [UZARIN]
inactive: EKVX 17.7 µM | NCI-H23 11.1 µM | NCI-H226 42.2 µM | OVCAR-5 27.4 µM | MOLT-4 4.02 µM | U-251 39.7 µM | Malme-3M 17.5 µM | SK-MEL-28 > 80 µM | OVCAR-3 23.3 µM | HT-29 35.8 µM | M14 24.8 µM | COLO 205 50.1 µM | SF-295 17.3 µM | SN12C 20.1 µM | ACHN 8.57 µM | RPMI-8226 43.4 µM | SF-539 15.5 µM | LOX IMVI 22.1 µM | UO-31 25.1 µM | UACC-257 31.3 µM

O=S(=O)(N/N=C/c1c(Cl)cccc1Cl)c1ccccc1
inactive: EKVX > 100 µM | NCI-H23 > 100 µM | NCI-H226 > 100 µM | OVCAR-5 > 100 µM | MOLT-4 91.4 µM | U-251 50.7 µM | Malme-3M > 100 µM | SK-MEL-28 > 100 µM | OVCAR-3 > 100 µM | HT-29 > 100 µM | M14 > 100 µM | COLO 205 > 100 µM | SF-295 > 100 µM | SN12C > 100 µM | RPMI-8226 > 100 µM | SF-539 > 100 µM | LOX IMVI > 100 µM | UO-31 > 100 µM | UACC-257 > 100 µM

Cc1c2c(n(CCN(C)C)c1C)NN=C(C#N)S2(=O)=O
inactive: EKVX > 100 µM | NCI-H23 > 100 µM | NCI-H226 > 100 µM | OVCAR-5 > 100 µM | MOLT-4 > 100 µM | U-251 > 100 µM | Malme-3M > 100 µM | SK-MEL-28 > 100 µM | OVCAR-3 > 100 µM | HT-29 > 100 µM | M14 > 100 µM | COLO 205 > 100 µM | SN12C > 100 µM | ACHN > 100 µM | RPMI-8226 > 100 µM | SF-539 > 100 µM | LOX IMVI > 100 µM | UO-31 > 100 µM | UACC-257 > 100 µM
